Patent US20060246099A1 (L'OREAL, priority 2005, published 2006)

How the values were obtained:
[1] = tested on: type L calcium channels, verapamil site; assay: Binding to type L calcium channels, [3H](-)-D888 displacement; design: species or system rat; details: similar test, concentration of 50 μM
Description: The studies are performed using rat cerebral cortex homogenates (isolated membranes containing at their surface type L calcium channels) according to the method described by Reynolds I. J. et al., 1986, J. Pharmacol. Exp. Ther., 237, p. 731.
The experimental conditions are as follows:
D888, which is [^3H] (−)-demethoxyverapamil, serves as a radiolabelled specific ligand, and D600, which is (±)-methoxyverapamil hydrochloride, serves as a reference molecule.
The specific binding of a ligand (labelled D888) to the receptors (type L calcium channels, verapamil site) is defined as being the difference between the total binding and the non-specific binding determined in the presence of an excess of cold (non-radioactive) ligand. The results are expressed as a percentage of inhibition of the specific binding of the control in the presence of the test compound.

[2] = tested on: human striated muscle cells innervated with explants of rat embryonic rachidian ganglia and spinal cord; assay: Nerve-muscle coculture test (muscle fibre contractions); assay type: cell-based; details: 60 seconds incubation
Description: The compounds of Examples 1 and 2 were tested on a model of nerve-muscle coculture, which makes it possible to recreate a motor arc by innervating human striated muscle cells with explants of rat embryonic rachidian ganglia and spinal cord.
Human muscle cells, obtained from samples of striated muscle from healthy donors, are inoculated into wells of cross section 1.8 cm^2 (24-well culture dishes). After culturing for ten days, these cells form a monolayer and fuse. At this stage, explants of embryonic spinal cord from a 13-day-old rat, containing the rachidian ganglia, are placed on the culture.
The growth of the neurites is visible beyond the spinal cord explant after one day of culture. The first contractions of the muscle fibres are observed after five to six days of coculture, and after three weeks all the muscle fibres in the region of the explants contract.
The cocultures are used after 21 days, when the muscle fibres are striated and contain mature differentiated neuromuscular junctions.
A muscle fibre showing regular contractions (at least 60 contractions per minute) is then selected from three different culture wells and the number of contractions is counted over 30 seconds. […] At the end of incubation, the number of contractions is again counted over 30 seconds. […]

[3] = in vivo; cited from earlier work
[4] = tested on: human striated muscle cells innervated with explants of rat embryonic rachidian ganglia and spinal cord; details: validation of the model; cited from earlier work

Molecule | inhibition of the specific binding of the control to the calcium channels [1] | % inhibition of contractions ([2]; 10 μM) | % inhibition of contractions ([2]; 100 μM) | anti-wrinkle activity [3] | inhibition of muscle fibre contractions [4]
1-(2-phenylethyl)-4-(3-phenylpropyl)-piperazine [Compound 2] | 50% | 50% | 100% | – | –
CN1C(=O)CN=C(c2ccccc2)c2cc(Cl)ccc21 [diazepam] | – | – | – | anti-wrinkle activity has been demonstrated in vivo | inhibited muscle fibre contractions
